Test results reported in patent EP0827486B1, “STABILIZED ALKALI OR ALKALINE EARTH METAL HYPOBROMITE AND PROCESS FOR ITS PRODUCTION” (NALCO CHEMICAL COMPANY, priority 1996, dated 1997).

What was measured:
[1] = Volatility: halogen vapors from concentrated solutions in a beaker; type: physicochemical; conditions: concentrated solution in a beaker
Method: Concentrated solutions of either NaOCI, NaOBr, or stabilized NaOBr were added to a beaker. […] No odors were noticed from the stabilized NaOBr. This is an improvement over existing products by minimizing halogen odors in product storage areas.

[2] = test system: Pseudomonas aeruginosa; assay: Antibacterial activity of stored hypohalite solutions in cooling water; type: cell-based; conditions: volume initially required for one ppm free halogen
Method: Freshly prepared solutions of stabilized and unstabilized sodium hypobromite were diluted then added to cooling water in order to achieve a one ppm free halogen residual (as chlorine). Sodium hypochlorite was stabilized in the same fashion as described for NaOBr in Example One with the exception that NaBr was directly replaced with distilled water. Stabilized and unstabilized sodium hypochlorite were diluted then added to cooling water at a final concentration of one ppm free halogen residual (as chlorine). The volumes of all solutions needed to achieve a one ppm free halogen residual (as chlorine) was recorded. Following 6 and 21 days of dark storage, identical dilutions of stabilized and unstabilized sodium hypohalite solutions were prepared and the volume originally required for a one ppm free halogen residual (as chlorine) was added to cooling water containing approximately 10^6 Pseudomonas aeruginosa cells / mL. Aliquots were extracted at 10 and 30 minutes into cooling water dilution blanks containing a halogen neutralizer (0.05 percent Na2S2O3) then enumerated on tryptone glucose extract agar. Stabilized NaOBr retained its antibacterial activity after storage while the unstabilized form lost its efficacy against Pseudomonas aeruginosa (see Table III below). The results were even more dramatic as the storage period increased. This effect was likely due to the disproportionation of the unstable hypobromite ion into the non-biocidal species bromide and bromate. […]

[3] = Storage stability: loss of available halogen; type: physicochemical
Method: Sodium hypochlorite solution was diluted in demand-free water. This diluted solution was titrated by the DPD-FAS method. The available chlorine level present in the original solution was determined to be 15 percent. 42.4 grams of the neat NaOCl solution were added to 20.5 grams of a 45 percent NaBr solution. This reaction forms unstabilized NaOBr. The stabilization solution was formulated with 9.6 grams of sulfamic acid, 14 grams of water, and 13.2 grams of 50 percent sodium hydroxide. The stabilization solution is then added with stirring to the NaOBr. The order of addition is critical in this process which differs from the Goodenough et al. reference. For instance, if the stabilizer was added to NaOCl prior to NaBr introduction, the bromide would not be oxidized to hypobromite. […] The stabilization procedure described here improved on the prior art as the decline of active ingredient was only 1 percent after 84 days (see Table I above). An unstabilized NaOBr solution prepared in an similar process by replacing sulfamic acid with distilled water lost 94 percent available halogen during the same period.

[4] = Bromate analysis of cooling water dosed with dilute solutions; type: physicochemical; conditions: cooling water (pH 8.3); total available halogen 1, 2, 3, and 4 ppm (as Cl2)
Method: As noted above, the pH of these solutions was high which favors bromate formation. However, NaOCl, which contains significant amounts of NaOH, is typically diluted with system water prior to the introduction of the bromide species in most industrial applications. The pH of this diluted system would be lower than the neat NaOCI / NaBr formulation described above theoretically minimizing bromate formation. The available chlorine in a NaOCI sample diluted (1:100) with distilled water was titrated by the DPD-FAS method. A solution of 45 percent sodium bromide was added to the dilute NaOCI at a molar ratio of 1 Cl2 : 1 Br^- forming NaOBr. This reaction proceeded for thirty minutes. Then, appropriate volumes of this dilute NaOBr solution were added to cooling water (pH 8.3) giving total available halogen levels of 1, 2, 3, and 4 ppm (as Cl2) as determined by the DPD-FAS method. Similarly, a dilution of stabilized sodium hypobromite (1:100) was made in distilled water. Dilute stabilized NaOBr was added to cooling water (pH 8.3) giving total available halogen levels of 1, 2, 3, and 4 ppm (as Cl2) as determined by the DPD-FAS method. Bromate analysis then proceeded in the manner described above. Bromate was not detected in any of the cooling water samples dosed with either stabilized or unstabilized dilute NaOBr at typical use concentrations.

[5] = Bromate formation in stored solutions (ion chromatography); type: physicochemical; conditions: STORED FOR EIGHT MONTHS in the dark at room temperature; pH 14
Method: Hypohalite ions are known to disproportionate into halate and halide under alkaline conditions. Halate ions are undesirable degradants being suspect carcinogens and are under consideration for governmental regulation. The reaction of NaBr with NaOCI can yield significant amounts of bromate in elevated pH environments. […] Stabilized and unstabilized sodium hypobromite solutions were prepared as described in Example One. These solutions were stored in the dark at room temperature during the course of the study. Eight month old samples of stabilized and unstabilized NaOBr, both maintained at pH 14, a condition suitable for bromate formation, were assayed for bromate. A Dionex 4000 series gradient ion chromatography system equipped with AG9-SC/AS9-SC columns and a conductivity detector was used to measure the bromate concentration in the samples. The chromatograph was operated according to a method currently under investigation by the EPA for the analysis of bromate in ozonated drinking water. Purified water from an Interlake Water Systems deionization system was used for the preparation of all reagents and standard solutions to prevent contamination.

[6] = Source text: AOX is a generic class of compounds which includes all organic molecules containing halogen. Limits for AOX discharge from cooling water systems have already been established in some European countries. To simulate AOX formation during stabilized and unstabilized sodium hypobromite action in cooling water, a mixed bacterial culture typically found in cooling water was cultivated in L-broth overnight and the cells harvested by centrifugation. The cell pellet was washed with synthetic cooling water (90 ppm calcium, 50 ppm magnesium, 110 ppm "M" alkalinity, pH 8.0 -8.2) twice to remove the remaining organic medium. Cells were then resuspended into an equal volume of cooling water. A capped dark bottle served as the reactor. Synthetic cooling water was added to the bottle followed by the washed bacterial stock yielding approximately 10^7 cells/ml. Stabilized NaOBr or unstabilized NaOBr was dosed into this bacterial suspension at a final concentration of 1, 2, 3, or 4 ppm total halogen (as chlorine). Headspace in the bottle was minimized to avoid the evaporative loss of halogenated organics and the solution stirred for 24 hours to simulate a typical cooling system. Immediately before AOX analysis, the sample was acidified to pH 2.0 with concentrated nitric acid. A Mitsubishi TOX-10 Analyzer was used according to US EPA Method 9020 to measure the AOX concentration in the samples. […]
[7] = 6 DAYS OF STORAGE, CONTACT TIME 10 MINUTES
[8] = 6 DAYS OF STORAGE, CONTACT TIME 30 MINUTES
[9] = 21 DAYS OF STORAGE, CONTACT TIME 10 MINUTES
[10] = 21 DAYS OF STORAGE, CONTACT TIME 30 MINUTES

Row | SMILES | Halogen vapors / odors [1] | % BACTERIA KILLED [2, 7] [%] | % BACTERIA KILLED [2, 8] [%] | % BACTERIA KILLED [2, 9] [%] | % BACTERIA KILLED [2, 10] [%] | % LOSS OF AVAILABLE HALOGEN ([3]; After 14 days) [%] | % LOSS OF AVAILABLE HALOGEN ([3]; After 21 days) [%] | % LOSS OF AVAILABLE HALOGEN ([3]; After 34 days) [%] | % LOSS OF AVAILABLE HALOGEN ([3]; After 84 days) [%] | % LOSS OF AVAILABLE HALOGEN ([3]; After 84 days, listed as unstabilized NaOBr) [%] | Bromate [4] | PERCENT BROMATE [5] [%] | linear-fit equation AOX (ppb) = factor X Dose (ppm) [6]
1 | [Na+].[O-]Cl [unstabilized NaOCl, sodium hypochlorite] | Halogen vapors were detected | 100 | 100 | 100 | 100 | – | – | – | – | – | – | – | –
2 | [Na+].[O-]Br [Unstabilized Sodium Hypobromite, sodium hypobromite] | Halogen vapors were detected | 99.8 | 99.7 | 0.4 | 6.1 | 74 | 79 | 84 | 93 | 94 | not detected | 2.700 | 53.9
